Experimental data from patent US20230277583A1, “ENTERAL CARBON MONOXIDE FOR THE PREVENTION AND TREATMENT OF OCULAR DISEASES” (Augusta University Research Institute, Inc., priority 2022, published 2023).

What was measured:
[1] = cited from earlier work
[2] = CO concentration achievable in aqueous composition at various temperature and pressure; assay type: physicochemical
Method: For example, CO can be dissolved in an aqueous liquid under higher than ambient pressure. The use of pressure to dissolve the CO increases the achievable concentration of CO in solution. […] For example, lowering of the temperature below 2° C. and increasing the pressure above 10 ATM can achieve an even greater concentration of CO dissolved in the aqueous solution. […] Although raising the pressure above 10 ATM might not be commercially practicable, it is technologically feasible at this time.
The method of making a CO-containing liquid composition relies on the use of greater than atmospheric pressure (i.e., “high” pressure) to increase the amount of CO dissolved in the liquid composition. In some embodiments, at least 1.1 atmospheres (ATM) of pressure is used in the process of introducing CO into the liquid composition. Preferably, where high pressure is used, at least 1.2 ATM is used. In certain exemplary embodiments, 2 ATM, 3 ATM, or 5 ATM is used during introduction of CO into the liquid composition. It is contemplated that pressures above 5 ATM are also suitable, such as 6 ATM, 7 ATM, 8 ATM, and 10 ATM or higher. In accordance with the discussion concerning ranges set forth above, all specific values, and all possible ranges, falling within the atmospheric conditions discussed herein are contemplated. Furthermore, variations in the source of CO, the equipment used to introduce the CO into the liquid composition, the pressure of the CO being used (i.e., volume supplied per unit time), and the atmospheric pressures used will affect the amount of time required to achieve a suitable concentration of CO in the composition.
The method of making a CO-containing liquid composition preferably includes subjecting the composition to a low temperature during the step of exposing the liquid to CO. […] A low temperature is typically a temperature at or below 4° C., preferably at or below 2° C., such as 1° C., 0° C., −1° C., −2° C., −3° C., −4° C., −5° C., −6° C., −10° C., −12° C., −14° C., −16° C., −18° C., −20° C., or below. In embodiments where the composition is exposed to a low temperature, it is preferred that the CO-containing liquid composition be sealed to preclude loss of dissolved CO over time. Accordingly, in embodiments, the method of making a CO-containing liquid composition includes dispensing the liquid composition into a sealable container and sealing the container after an appropriate amount of CO has been dissolved in the liquid composition. Dispensing of the liquid can be performed before, during, or after dissolving CO into the liquid composition. Typically, sealing will be performed under low temperature to minimize loss of dissolved CO during the process of sealing. As discussed above, any number of sealable containers and caps are known in the art of bottling and canning of liquids, and any of these can be used within the context of the present disclosure. For the sake of clarity, in embodiments where both high pressure and low temperature are used, it is preferred that sealing be performed under both high pressure and low temperature, although the same pressure and temperature used for dissolving CO into the liquid need not be used. Further, it is to be understood that, once the CO-containing liquid is sealed in a container under CO gas, it is not necessary to maintain the sealed container at high pressure and low temperature, as the sealed container will not allow dissolved CO to escape from solution.

[3] = low dose CO reaching <20% COHb saturation; cited from earlier work

Which results are given for `[C-]#[O+]` [CO, carbon monoxide]?
half-life of the alpha-phase of CO in the human bloodstream [1]: 4 to 6 h; CO Concentration Achievable in Aqueous Composition ([2]; 2° C., 1 ATM): 40 mg/L water; CO Concentration in Aqueous Solution ([2]; 2° C., 1 ATM): 40 mg/L water; CO Concentration Achievable in Aqueous Composition ([2]; 2° C., 2 ATM): 80 mg/L water; CO Concentration in Aqueous Solution ([2]; 2° C., 2 ATM): 80 mg/L water; CO Concentration Achievable in Aqueous Composition ([2]; 2° C., 3 ATM): 120 mg/L water; CO Concentration in Aqueous Solution ([2]; 2° C., 3 ATM): 120 mg/L water; CO Concentration Achievable in Aqueous Composition ([2]; 2° C., 5 ATM): 200 mg/L water; CO Concentration in Aqueous Solution ([2]; 2° C., 5 ATM): 200 mg/L water; CO Concentration Achievable in Aqueous Composition ([2]; 2° C., 10 ATM): 400 mg/L water; CO Concentration in Aqueous Solution ([2]; 2° C., 10 ATM): 400 mg/L water; CO Concentration Achievable in Aqueous Composition ([2]; 21° C., 1 ATM): 25 mg/L water; safety and tolerability [3]: safe and tolerable
